Tests used:
Bile salt export pump = Bile salt export pump (Homo sapiens, UniProt O95342); test: Inhibition of human BSEP overexpressed in Sf9 cell membrane vesicles assessed as uptake of [3H]-taurocholate in presence of ATP measured after 15 to 20 mins by membrane vesicle transport assay; format: ADME, cell-based
[1] = target: ATP-binding cassette sub-family C member 2 (Homo sapiens, UniProt Q92887); test: Inhibition of human MRP2 overexpressed in Sf9 cell membrane vesicles assessed as uptake of [3H]-estradiol-17beta-D-glucuronide in presence of ATP and GSH measured after 20 mins by membrane vesicle transport assay
[2] = target: ATP-binding cassette sub-family C member 3 (Homo sapiens, UniProt O15438); test: Inhibition of human MRP3 overexpressed in Sf9 insect cell membrane vesicles assessed as uptake of [3H]-estradiol-17beta-D-glucuronide in presence of ATP and GSH measured after 10 mins by membrane vesicle transport assay; format: ADME, cell-based
[3] = target: T1, ATP-binding cassette sub-family C member 4 (Homo sapiens, UniProt O15439); test: Inhibition of human MRP4 overexpressed in Sf9 cell membrane vesicles assessed as uptake of [3H]-estradiol-17beta-D-glucuronide in presence of ATP and GSH measured after 20 mins by membrane vesicle transport assay; format: ADME, cell-based
T1 sequence (O15439 whole entry): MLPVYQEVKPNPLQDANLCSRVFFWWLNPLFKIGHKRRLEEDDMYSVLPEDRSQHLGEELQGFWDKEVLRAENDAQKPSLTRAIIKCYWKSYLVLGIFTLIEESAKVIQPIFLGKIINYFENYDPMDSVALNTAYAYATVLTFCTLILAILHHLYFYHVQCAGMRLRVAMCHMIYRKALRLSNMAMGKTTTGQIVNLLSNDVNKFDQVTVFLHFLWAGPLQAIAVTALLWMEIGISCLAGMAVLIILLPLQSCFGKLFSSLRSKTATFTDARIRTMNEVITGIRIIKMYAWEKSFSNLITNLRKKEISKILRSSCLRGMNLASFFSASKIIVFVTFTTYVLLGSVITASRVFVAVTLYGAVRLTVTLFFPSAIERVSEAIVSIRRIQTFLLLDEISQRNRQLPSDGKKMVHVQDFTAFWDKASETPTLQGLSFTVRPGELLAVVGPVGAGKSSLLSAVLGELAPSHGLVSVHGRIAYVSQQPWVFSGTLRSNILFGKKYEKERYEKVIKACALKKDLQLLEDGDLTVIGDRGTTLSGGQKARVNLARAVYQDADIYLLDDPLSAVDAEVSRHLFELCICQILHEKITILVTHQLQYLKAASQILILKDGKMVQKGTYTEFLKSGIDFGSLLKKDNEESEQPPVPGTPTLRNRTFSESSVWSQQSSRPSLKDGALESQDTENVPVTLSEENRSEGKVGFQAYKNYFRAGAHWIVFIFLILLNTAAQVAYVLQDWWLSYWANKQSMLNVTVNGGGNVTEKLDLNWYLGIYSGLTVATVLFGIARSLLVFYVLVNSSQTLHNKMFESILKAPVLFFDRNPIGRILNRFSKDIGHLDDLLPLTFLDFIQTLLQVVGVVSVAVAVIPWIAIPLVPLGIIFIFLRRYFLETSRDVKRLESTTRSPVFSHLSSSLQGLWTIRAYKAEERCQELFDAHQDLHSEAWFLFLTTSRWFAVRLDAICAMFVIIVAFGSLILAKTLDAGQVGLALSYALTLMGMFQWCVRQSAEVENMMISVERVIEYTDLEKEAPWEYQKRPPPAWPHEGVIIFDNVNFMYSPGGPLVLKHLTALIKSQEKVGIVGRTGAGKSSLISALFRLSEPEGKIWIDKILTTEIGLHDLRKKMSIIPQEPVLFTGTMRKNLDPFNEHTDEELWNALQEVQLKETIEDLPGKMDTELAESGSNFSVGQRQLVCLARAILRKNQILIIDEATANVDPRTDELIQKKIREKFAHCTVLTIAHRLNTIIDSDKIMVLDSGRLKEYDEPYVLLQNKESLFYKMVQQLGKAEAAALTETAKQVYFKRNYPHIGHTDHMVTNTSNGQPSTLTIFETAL

[4] = AUC in human at 40 to 80 mg, po QD after 24 hrs; format: ADME, organism-based; details: in vivo
[5] = Drug concentration at steady state in human at 40 to 80 mg, po QD after 24 hrs; format: ADME, organism-based; details: in vivo, read-out: Css
[6] = Ratio of drug concentration at steady state in human at 40 to 80 mg, po QD after 24 hrs to IC50 for human BSEP overexpressed in Sf9 insect cells; format: ADME, organism-based; details: in vivo
[7] = Ratio of drug concentration at steady state in human at 40 to 80 mg, po QD after 24 hrs to IC50 for human MRP4 overexpressed in Sf9 insect cells; format: ADME, organism-based; details: in vivo
[8] = AUC in human at 50 to 400 mg, po BID after 12 hrs; format: ADME, organism-based; details: in vivo
[9] = Drug concentration at steady state in human at 50 to 400 mg, po BID after 12 hrs; format: ADME, organism-based; details: in vivo, read-out: Css
[10] = Ratio of drug concentration at steady state in human at 50 to 400 mg, po BID after 12 hrs to IC50 for human BSEP overexpressed in Sf9 insect cells; format: ADME, organism-based; details: in vivo
[11] = AUC in human at 200 mg, po Q3h measured after 3 hrs; format: ADME, organism-based; design: dose 200 mg, time < 3 hr, route oral; details: in vivo
[12] = Drug concentration at steady state in human at 200 mg, po Q3h measured after 3 hrs; format: ADME, organism-based; details: in vivo, read-out: Css
[13] = Ratio of drug concentration at steady state in human at 200 mg, po Q3h measured after 3 hrs to IC50 for human BSEP overexpressed in Sf9 insect cells; format: ADME, organism-based; details: in vivo
[14] = Ratio of drug concentration at steady state in human at 200 mg, po Q3h measured after 3 hrs to IC50 for human MRP3 overexpressed in Sf9 insect cells; format: ADME, organism-based; details: in vivo
[15] = Ratio of drug concentration at steady state in human at 200 mg, po Q3h measured after 3 hrs to IC50 for human MRP4 overexpressed in Sf9 insect cells; format: ADME, organism-based; details: in vivo
[16] = AUC in human at 40 to 80 mg, po TID after 8 hrs; format: ADME, organism-based; details: in vivo
[17] = Drug concentration at steady state in human at 40 to 80 mg, po TID after 8 hrs; format: ADME, organism-based; details: in vivo, read-out: Css
[18] = Ratio of drug concentration at steady state in human at 40 to 80 mg, po TID after 8 hrs to IC50 for human BSEP overexpressed in Sf9 insect cells; format: ADME, organism-based; details: in vivo
[19] = Ratio of drug concentration at steady state in human at 40 to 80 mg, po TID after 8 hrs to IC50 for human MRP4 overexpressed in Sf9 insect cells; format: ADME, organism-based; details: in vivo
[20] = AUC in human at 100 to 600 mg, po QD after 24 hrs; format: ADME, organism-based; details: in vivo
[21] = Drug concentration at steady state in human at 100 to 600 mg, po QD after 24 hrs; format: ADME, organism-based; details: in vivo, read-out: Css
[22] = Ratio of drug concentration at steady state in human at 100 to 600 mg, po QD after 24 hrs to IC50 for human BSEP overexpressed in Sf9 insect cells; format: ADME, organism-based; details: in vivo
[23] = AUC in human at 5 to 20 mg, iv after 24 hrs; format: ADME, organism-based; details: in vivo
Homo sapiens = test: Drug concentration at steady state in human at 5 to 20 mg, iv after 24 hrs; format: ADME, organism-based; details: in vivo

Sequence of ATP-binding cassette sub-family C member 2 (Q92887 whole entry): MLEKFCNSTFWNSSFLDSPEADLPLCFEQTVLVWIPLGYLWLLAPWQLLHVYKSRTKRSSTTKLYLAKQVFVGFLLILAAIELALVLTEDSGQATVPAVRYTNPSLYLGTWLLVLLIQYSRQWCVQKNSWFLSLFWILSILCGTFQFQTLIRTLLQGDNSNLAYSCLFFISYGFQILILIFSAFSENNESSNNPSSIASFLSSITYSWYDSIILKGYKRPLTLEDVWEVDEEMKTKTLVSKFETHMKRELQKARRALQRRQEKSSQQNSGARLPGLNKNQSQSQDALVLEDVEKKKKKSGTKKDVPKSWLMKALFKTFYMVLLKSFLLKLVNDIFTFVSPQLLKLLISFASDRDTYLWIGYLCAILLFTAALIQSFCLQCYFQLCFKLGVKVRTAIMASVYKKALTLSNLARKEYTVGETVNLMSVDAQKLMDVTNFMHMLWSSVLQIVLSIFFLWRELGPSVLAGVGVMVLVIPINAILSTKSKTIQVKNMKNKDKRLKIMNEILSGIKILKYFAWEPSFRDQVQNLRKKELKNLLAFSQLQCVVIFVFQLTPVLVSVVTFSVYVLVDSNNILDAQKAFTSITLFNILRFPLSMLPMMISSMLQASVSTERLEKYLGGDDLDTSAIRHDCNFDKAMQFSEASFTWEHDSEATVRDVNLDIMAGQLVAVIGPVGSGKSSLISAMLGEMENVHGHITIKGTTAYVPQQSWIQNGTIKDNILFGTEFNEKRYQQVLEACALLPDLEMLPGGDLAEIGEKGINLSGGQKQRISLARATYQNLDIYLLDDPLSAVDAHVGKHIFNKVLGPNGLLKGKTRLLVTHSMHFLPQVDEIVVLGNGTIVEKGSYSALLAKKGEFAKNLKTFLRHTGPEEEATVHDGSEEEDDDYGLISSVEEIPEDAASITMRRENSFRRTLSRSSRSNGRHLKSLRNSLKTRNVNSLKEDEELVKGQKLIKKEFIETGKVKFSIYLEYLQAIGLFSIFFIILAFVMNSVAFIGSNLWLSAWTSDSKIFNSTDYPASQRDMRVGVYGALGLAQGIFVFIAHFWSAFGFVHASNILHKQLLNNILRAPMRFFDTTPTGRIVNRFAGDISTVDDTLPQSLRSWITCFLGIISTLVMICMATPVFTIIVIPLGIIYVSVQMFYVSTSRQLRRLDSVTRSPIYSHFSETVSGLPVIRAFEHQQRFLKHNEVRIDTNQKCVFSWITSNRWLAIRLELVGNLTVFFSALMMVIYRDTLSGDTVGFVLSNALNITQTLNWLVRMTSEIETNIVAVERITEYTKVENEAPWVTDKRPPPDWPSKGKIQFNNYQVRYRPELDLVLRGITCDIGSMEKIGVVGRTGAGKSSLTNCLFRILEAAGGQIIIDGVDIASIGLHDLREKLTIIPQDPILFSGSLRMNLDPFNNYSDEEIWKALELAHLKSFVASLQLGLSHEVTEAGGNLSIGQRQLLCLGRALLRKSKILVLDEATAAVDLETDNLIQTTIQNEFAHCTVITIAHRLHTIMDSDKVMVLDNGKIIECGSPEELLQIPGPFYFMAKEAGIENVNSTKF
Sequence of ATP-binding cassette sub-family C member 3 (O15438 whole entry): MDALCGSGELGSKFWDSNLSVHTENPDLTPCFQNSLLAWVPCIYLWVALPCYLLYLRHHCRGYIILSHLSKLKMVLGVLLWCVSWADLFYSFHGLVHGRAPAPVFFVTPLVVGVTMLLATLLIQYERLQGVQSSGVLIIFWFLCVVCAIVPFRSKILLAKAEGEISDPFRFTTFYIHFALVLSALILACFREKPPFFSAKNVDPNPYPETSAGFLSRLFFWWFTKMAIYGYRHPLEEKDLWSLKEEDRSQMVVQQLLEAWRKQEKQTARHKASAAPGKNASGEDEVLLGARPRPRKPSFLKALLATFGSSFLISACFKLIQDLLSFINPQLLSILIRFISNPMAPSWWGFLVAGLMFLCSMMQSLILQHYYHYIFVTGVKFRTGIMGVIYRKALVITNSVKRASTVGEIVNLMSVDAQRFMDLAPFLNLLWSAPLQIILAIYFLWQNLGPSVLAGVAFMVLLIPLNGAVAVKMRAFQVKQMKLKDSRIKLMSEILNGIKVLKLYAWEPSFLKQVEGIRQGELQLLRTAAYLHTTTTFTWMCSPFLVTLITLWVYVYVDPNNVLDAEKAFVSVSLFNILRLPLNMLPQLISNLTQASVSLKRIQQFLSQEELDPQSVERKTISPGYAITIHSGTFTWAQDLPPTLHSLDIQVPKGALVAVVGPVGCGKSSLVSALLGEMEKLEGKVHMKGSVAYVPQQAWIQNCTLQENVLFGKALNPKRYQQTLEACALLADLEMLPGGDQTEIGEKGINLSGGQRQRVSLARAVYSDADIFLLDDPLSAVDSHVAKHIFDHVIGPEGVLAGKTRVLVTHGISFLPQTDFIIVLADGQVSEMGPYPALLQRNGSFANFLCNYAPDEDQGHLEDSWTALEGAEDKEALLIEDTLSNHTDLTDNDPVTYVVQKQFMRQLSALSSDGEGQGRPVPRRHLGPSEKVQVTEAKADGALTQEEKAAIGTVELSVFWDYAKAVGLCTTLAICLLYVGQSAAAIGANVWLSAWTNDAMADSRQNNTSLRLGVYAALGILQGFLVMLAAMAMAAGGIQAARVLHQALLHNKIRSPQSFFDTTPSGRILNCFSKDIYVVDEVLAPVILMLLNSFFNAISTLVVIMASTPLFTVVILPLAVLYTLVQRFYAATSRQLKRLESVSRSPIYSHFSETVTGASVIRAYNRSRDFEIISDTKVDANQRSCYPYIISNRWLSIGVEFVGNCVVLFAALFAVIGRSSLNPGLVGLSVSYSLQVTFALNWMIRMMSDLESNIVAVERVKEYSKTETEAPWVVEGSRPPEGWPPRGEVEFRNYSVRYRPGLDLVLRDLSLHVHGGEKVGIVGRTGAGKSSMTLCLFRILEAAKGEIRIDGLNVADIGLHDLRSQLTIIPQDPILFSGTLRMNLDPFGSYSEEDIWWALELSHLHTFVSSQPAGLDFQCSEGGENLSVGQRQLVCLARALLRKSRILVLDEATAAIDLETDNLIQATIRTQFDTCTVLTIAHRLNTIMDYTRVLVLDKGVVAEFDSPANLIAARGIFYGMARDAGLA
Sequence of Bile salt export pump (O95342 whole entry): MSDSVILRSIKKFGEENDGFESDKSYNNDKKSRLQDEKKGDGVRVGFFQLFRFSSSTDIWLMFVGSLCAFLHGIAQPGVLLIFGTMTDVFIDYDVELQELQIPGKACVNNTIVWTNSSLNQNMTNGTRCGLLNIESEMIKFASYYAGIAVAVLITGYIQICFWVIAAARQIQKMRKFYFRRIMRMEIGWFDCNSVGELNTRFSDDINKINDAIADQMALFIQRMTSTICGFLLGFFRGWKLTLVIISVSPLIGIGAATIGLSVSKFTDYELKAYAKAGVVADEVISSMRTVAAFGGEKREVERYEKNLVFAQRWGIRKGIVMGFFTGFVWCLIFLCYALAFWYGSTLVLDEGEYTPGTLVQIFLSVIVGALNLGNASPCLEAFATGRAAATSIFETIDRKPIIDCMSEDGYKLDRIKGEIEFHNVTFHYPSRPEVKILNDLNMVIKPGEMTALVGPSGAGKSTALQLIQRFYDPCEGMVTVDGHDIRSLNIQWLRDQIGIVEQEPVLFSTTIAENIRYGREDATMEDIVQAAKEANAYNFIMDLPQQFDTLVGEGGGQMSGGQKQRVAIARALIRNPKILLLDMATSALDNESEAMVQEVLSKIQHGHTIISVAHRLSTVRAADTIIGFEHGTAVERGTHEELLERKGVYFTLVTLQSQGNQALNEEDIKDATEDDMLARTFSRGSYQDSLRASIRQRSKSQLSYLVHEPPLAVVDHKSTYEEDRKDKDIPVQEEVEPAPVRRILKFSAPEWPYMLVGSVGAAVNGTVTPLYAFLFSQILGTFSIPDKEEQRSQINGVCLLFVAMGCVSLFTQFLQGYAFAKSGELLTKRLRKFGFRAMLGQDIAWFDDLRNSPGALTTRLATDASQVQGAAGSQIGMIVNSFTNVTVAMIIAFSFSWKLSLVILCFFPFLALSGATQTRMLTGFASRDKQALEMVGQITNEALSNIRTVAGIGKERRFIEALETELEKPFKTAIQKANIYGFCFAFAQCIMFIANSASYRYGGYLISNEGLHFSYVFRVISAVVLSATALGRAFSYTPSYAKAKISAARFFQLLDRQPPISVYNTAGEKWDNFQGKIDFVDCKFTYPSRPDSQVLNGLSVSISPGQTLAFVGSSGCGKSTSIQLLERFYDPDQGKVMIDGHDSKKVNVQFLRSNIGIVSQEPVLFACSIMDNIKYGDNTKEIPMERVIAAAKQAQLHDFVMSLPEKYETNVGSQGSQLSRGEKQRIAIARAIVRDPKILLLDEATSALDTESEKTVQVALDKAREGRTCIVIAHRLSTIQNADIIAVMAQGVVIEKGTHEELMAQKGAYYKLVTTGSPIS

| Structure (SMILES) | IC50 [1] [µM] | IC50 [2] [µM] | IC50 [3] [µM] | IC50 (Bile salt export pump) [µM] | other results |
| --- | --- | --- | --- | --- | --- |
| C#C[C@]1(O)CC[C@H]2[C@@H]3CCC4=Cc5oncc5C[C@]4(C)[C@H]3CC[C@@]21C [DANAZOL] | > 133 | > 133 | > 133 | 18.7 | AUC at 12 h [8]: 5.48 µM·h; concentration at 12 h [9]: 0.457 µM; Ratio [10]: 0.024 |
| CCN(CC)C(=O)/C(C#N)=C/c1cc(O)c(O)c([N+](=O)[O-])c1 [ENTACAPONE] | > 133 | 35.1 | 6.8 | 55.6 | AUC at 3 h [11]: 5.29 µM·h; concentration at 3 h [12]: 1.76 µM; Ratio [13]: 0.032; Ratio [14]: 0.05; Ratio [15]: 0.259 |
| CCOc1ccc(/C=C2\NCCc3cc(OCC)c(OCC)cc32)cc1OCC [DROTAVERINE] | > 133 | > 133 | 24.5 |  | AUC at 8 h [16]: 8.18 µM·h; concentration at 8 h [17]: 1.02 µM; Ratio [18]: 0.028; Ratio [19]: 0.042 |

Now from value to compound, other results behind:

| IC50 [1] [µM] | IC50 [2] [µM] | IC50 [3] [µM] | Structure (SMILES) | IC50 (Bile salt export pump) [µM] | other results |
| --- | --- | --- | --- | --- | --- |
| > 133 | > 133 | 1.9 | Cc1nc(-c2ccc(OCC(C)C)c(C#N)c2)sc1C(=O)O [FEBUXOSTAT] | 42.9 | AUC at 24 h [4]: 25.1 µM·h; concentration at 24 h [5]: 1.05 µM; Ratio [6]: 0.024; Ratio [7]: 0.55 |
| > 133 | > 133 | > 133 | CCOC(=O)Nc1ccc(NCc2ccc(F)cc2)nc1N [FLUPIRTINE] |  | AUC at 24 h [20]: 20 µM·h; concentration at 24 h [21]: 0.832 µM; Ratio [22]: 0.023 |
| 17.6 | 71.9 | 44 | CO[C@H]1C[C@@H]2CC[C@@H](C)[C@@](O)(O2)C(=O)C(=O)N2CCCC[C@H]2C(=O)O[C@H]([C@H](C)C[C@@H]2CC[C@@H](OC(=O)C(C)(CO)CO)[C@H](OC)C2)CC(=O)[C@H](C)/C=C(\C)[C@@H](O)[C@@H](OC)C(=O)[C@H](C)C[C@H](C)/C=C/C=C/C=C/1C [TEMSIROLIMUS] |  | AUC at 24 h [23]: 1.91 µM·h; Css (Homo sapiens): 0.079 µM |
